#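 Here, GI50 denotes the concentration required for 50% inhibition of growth. TGI is the concentration that stops growth completely.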
# Legend:
# Experiment in all cases: NCI anticancer screen, dose series, 384-well format
# HCC-2998 colon = tested on: HCC-2998 colon
# HCT-116 colon = tested on: HCT-116 colon
# MDA-MB-468 breast = tested on: MDA-MB-468 breast
# K-562 leukemia = tested on: K-562 leukemia
# SW-620 colon = tested on: SW-620 colon
# SK-OV-3 ovarian = tested on: SK-OV-3 ovarian
# NCI-H226 lung = tested on: NCI-H226 lung
# HOP-92 NSCLC = tested on: HOP-92 NSCLC
# U251 glioblastoma = tested on: U251 glioblastoma
# PC-3 prostate = tested on: PC-3 prostate
# MDA-MB-231 breast = tested on: MDA-MB-231 breast
# MCF7 breast = tested on: MCF7 breast
# SN12C renal = tested on: SN12C renal
# COLO 205 colon = tested on: COLO 205 colon
# NCI-H322M lung = tested on: NCI-H322M lung
# RXF 393 renal = tested on: RXF 393 renal
# IGROV1 ovarian = tested on: IGROV1 ovarian
# KM12 colon = tested on: KM12 colon
# 786-0 renal = tested on: 786-0 renal
# OVCAR-3 ovarian = tested on: OVCAR-3 ovarian
# ACHN renal = tested on: ACHN renal
# MALME-3M melanoma = tested on: MALME-3M melanoma
# HOP-62 NSCLC = tested on: HOP-62 NSCLC
# A549 NSCLC = tested on: A549 NSCLC
# SK-MEL-28 melanoma = tested on: SK-MEL-28 melanoma
# SK-MEL-5 melanoma = tested on: SK-MEL-5 melanoma
# MDA-MB-435 melanoma = tested on: MDA-MB-435 melanoma
# UO-31 renal = tested on: UO-31 renal
# UACC-62 melanoma = tested on: UACC-62 melanoma
# NCI/ADR-RES ovarian = tested on: NCI/ADR-RES ovarian
# SF-539 CNS = tested on: SF-539 CNS
# OVCAR-4 ovarian = tested on: OVCAR-4 ovarian
# NCI-H460 NSCLC = tested on: NCI-H460 NSCLC
# UACC-257 melanoma = tested on: UACC-257 melanoma
# SF-295 CNS = tested on: SF-295 CNS
# OVCAR-8 ovarian = tested on: OVCAR-8 ovarian
# HCT-15 colon = tested on: HCT-15 colon
# SNB-19 CNS = tested on: SNB-19 CNS
# HL-60(TB) leukemia = tested on: HL-60(TB) leukemia
# HS 578T breast = tested on: HS 578T breast
# NCI-H522 lung = tested on: NCI-H522 lung
# CAKI-1 renal = tested on: CAKI-1 renal
# TK-10 renal = tested on: TK-10 renal
# MOLT-4 leukemia = tested on: MOLT-4 leukemia
# HT29 colon = tested on: HT29 colon
# M14 melanoma = tested on: M14 melanoma
# SK-MEL-2 melanoma = tested on: SK-MEL-2 melanoma
# EKVX NSCLC = tested on: EKVX NSCLC
# OVCAR-5 ovarian = tested on: OVCAR-5 ovarian
# T-47D breast = tested on: T-47D breast
# SNB-75 CNS = tested on: SNB-75 CNS
# RPMI-8226 leukemia = tested on: RPMI-8226 leukemia
# DU-145 prostate = tested on: DU-145 prostate
# CCRF-CEM leukemia = tested on: CCRF-CEM leukemia
# A498 renal = tested on: A498 renal
# NCI-H23 lung = tested on: NCI-H23 lung
# LOX IMVI melanoma = tested on: LOX IMVI melanoma
# SF-268 CNS = tested on: SF-268 CNS
# BT-549 breast = tested on: BT-549 breast
smiles,measurement,setting,value
Nc1ncnc2c1c(-c1cccc(OCc3ccccc3)c1)cn2C1CC(CN2CCCC2)C1 (stereo not drawn),GI50,HCC-2998 colon,1290 nM
same,TGI,HCC-2998 colon,2630 nM
same,GI50,HCT-116 colon,1560 nM
same,TGI,HCT-116 colon,2990 nM
same,GI50,MDA-MB-468 breast,1520 nM
same,TGI,MDA-MB-468 breast,2970 nM
same,GI50,K-562 leukemia,1560 nM
same,TGI,K-562 leukemia,2950 nM
same,GI50,SW-620 colon,1410 nM
same,TGI,SW-620 colon,2960 nM
same,GI50,SK-OV-3 ovarian,1740 nM
same,TGI,SK-OV-3 ovarian,3290 nM
same,GI50,NCI-H226 lung,1470 nM
same,TGI,NCI-H226 lung,4310 nM
same,GI50,HOP-92 NSCLC,1460 nM
same,TGI,HOP-92 NSCLC,2820 nM
same,GI50,U251 glioblastoma,1890 nM
same,TGI,U251 glioblastoma,3380 nM
same,GI50,PC-3 prostate,1780 nM
same,TGI,PC-3 prostate,3510 nM
same,GI50,MDA-MB-231 breast,2050 nM
same,TGI,MDA-MB-231 breast,4560 nM
same,GI50,MCF7 breast,353 nM
same,TGI,MCF7 breast,1690 nM
same,GI50,SN12C renal,1770 nM
same,TGI,SN12C renal,3420 nM
same,GI50,COLO 205 colon,442 nM
same,TGI,COLO 205 colon,1640 nM
same,GI50,NCI-H322M lung,1860 nM
same,TGI,NCI-H322M lung,4940 nM
same,GI50,RXF 393 renal,1480 nM
same,TGI,RXF 393 renal,2830 nM
same,GI50,IGROV1 ovarian,3460 nM
same,TGI,IGROV1 ovarian,12300 nM
same,GI50,KM12 colon,1910 nM
same,TGI,KM12 colon,4160 nM
same,GI50,786-0 renal,1690 nM
same,TGI,786-0 renal,3080 nM
same,GI50,OVCAR-3 ovarian,1740 nM
same,TGI,OVCAR-3 ovarian,3430 nM
same,GI50,ACHN renal,2040 nM
same,TGI,ACHN renal,4450 nM
same,GI50,MALME-3M melanoma,1250 nM
same,TGI,MALME-3M melanoma,2520 nM
same,GI50,HOP-62 NSCLC,1870 nM
same,TGI,HOP-62 NSCLC,3490 nM
same,GI50,A549 NSCLC,1670 nM
same,TGI,A549 NSCLC,3410 nM
same,GI50,SK-MEL-28 melanoma,1570 nM
same,TGI,SK-MEL-28 melanoma,2920 nM
same,GI50,SK-MEL-5 melanoma,1200 nM
same,TGI,SK-MEL-5 melanoma,2450 nM
same,GI50,MDA-MB-435 melanoma,1490 nM
same,TGI,MDA-MB-435 melanoma,2840 nM
same,GI50,UO-31 renal,1520 nM
same,TGI,UO-31 renal,2880 nM
same,GI50,UACC-62 melanoma,1690 nM
same,TGI,UACC-62 melanoma,3070 nM
same,GI50,NCI/ADR-RES ovarian,2290 nM
same,TGI,NCI/ADR-RES ovarian,6640 nM
same,GI50,SF-539 CNS,1800 nM
same,TGI,SF-539 CNS,3210 nM
same,GI50,OVCAR-4 ovarian,2030 nM
same,TGI,OVCAR-4 ovarian,5180 nM
same,GI50,NCI-H460 NSCLC,1320 nM
same,TGI,NCI-H460 NSCLC,2750 nM
same,GI50,UACC-257 melanoma,1480 nM
same,TGI,UACC-257 melanoma,2810 nM
same,GI50,SF-295 CNS,1760 nM
same,TGI,SF-295 CNS,3220 nM
same,GI50,OVCAR-8 ovarian,1790 nM
same,TGI,OVCAR-8 ovarian,3510 nM
same,GI50,HCT-15 colon,1570 nM
same,TGI,HCT-15 colon,3280 nM
same,GI50,SNB-19 CNS,3000 nM
same,TGI,SNB-19 CNS,8690 nM
same,GI50,HL-60(TB) leukemia,324 nM
same,TGI,HL-60(TB) leukemia,1050 nM
same,GI50,HS 578T breast,1580 nM
same,TGI,HS 578T breast,2950 nM
same,GI50,NCI-H522 lung,1900 nM
same,TGI,NCI-H522 lung,3500 nM
same,GI50,CAKI-1 renal,1660 nM
same,TGI,CAKI-1 renal,3220 nM
same,GI50,TK-10 renal,1600 nM
same,TGI,TK-10 renal,3170 nM
same,GI50,MOLT-4 leukemia,1780 nM
same,TGI,MOLT-4 leukemia,3170 nM
same,GI50,HT29 colon,769 nM
same,TGI,HT29 colon,2060 nM
same,GI50,M14 melanoma,1400 nM
same,TGI,M14 melanoma,2720 nM
same,GI50,SK-MEL-2 melanoma,1060 nM
same,TGI,SK-MEL-2 melanoma,2260 nM
same,GI50,EKVX NSCLC,1360 nM
same,TGI,EKVX NSCLC,3740 nM
same,GI50,OVCAR-5 ovarian,1520 nM
same,TGI,OVCAR-5 ovarian,3810 nM
same,GI50,T-47D breast,1540 nM
same,TGI,T-47D breast,3040 nM
same,GI50,SNB-75 CNS,1900 nM
same,TGI,SNB-75 CNS,3340 nM
same,GI50,RPMI-8226 leukemia,1720 nM
same,TGI,RPMI-8226 leukemia,3110 nM
same,GI50,DU-145 prostate,3020 nM
same,TGI,DU-145 prostate,11900 nM
same,GI50,CCRF-CEM leukemia,1850 nM
same,TGI,CCRF-CEM leukemia,3260 nM
same,GI50,A498 renal,1730 nM
same,TGI,A498 renal,3300 nM
same,GI50,NCI-H23 lung,1380 nM
same,TGI,NCI-H23 lung,3560 nM
same,GI50,LOX IMVI melanoma,1670 nM
same,TGI,LOX IMVI melanoma,3050 nM
same,GI50,SF-268 CNS,1760 nM
same,TGI,SF-268 CNS,3190 nM
same,GI50,BT-549 breast,1550 nM
same,TGI,BT-549 breast,2980 nM

# From PubChem BioAssay (NCI)
